Experimental data as given in the supplement of paper PMC10307832.

Columns and labels:
Assay in all cases: relative viability (nuclei count vs DMSO), 5 days (fraction); higher = more cells survive
[1] = compound: CC1=C(C(=NN1)C)CC2=C(C3=C(S2)N(C(=O)N(C3=O)C)CC(C)C)C(=O)N4C[C@@H](CO4)O + CS(=O)(=O)CCNCc1ccc(-c2ccc3ncnc(Nc4ccc(OCc5cccc(F)c5)c(Cl)c4)c3c2)o1 [Lapatinib] (partner 2 µM)
Summary of the method: (§1)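 For relative viability, nuclei counts in treated wells were divided by those in vehicle wells. Lung cancer cell lines had been pin-tool dosed in 1536-well plates the day after seeding and cultured for 5 days, then fixed and stained in one step (final 0.05% Triton X-100, 1% formaldehyde, 1 ug/ml Hoechst) and imaged at 4×. Doses were one drug alone or a fixed anchor-drug dose plus five library-drug doses (not always all listed) in √10 steps, and values are duplicate-plate medians.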

[2] = compound: CC1=C(C(=NN1)C)CC2=C(C3=C(S2)N(C(=O)N(C3=O)C)CC(C)C)C(=O)N4C[C@@H](CO4)O + CS(=O)(=O)N1CCN(Cc2cc3nc(-c4cccc5[nH]ncc45)nc(N4CCOCC4)c3s2)CC1 [Pictilisib] (partner 1 µM)
Summary of the method: as §1

[3] = compound: Cc1ccccc1C(C(=O)NC1CCCCC1)N(C(=O)Cn1ccnc1C)c1cccc(F)c1 [IDH-C35] + CS(=O)(=O)CCNCc1ccc(-c2ccc3ncnc(Nc4ccc(OCc5cccc(F)c5)c(Cl)c4)c3c2)o1 [Lapatinib] (partner 2 µM)
Summary of the method: as §1

[4] = compound: Cc1ccccc1C(C(=O)NC1CCCCC1)N(C(=O)Cn1ccnc1C)c1cccc(F)c1 [IDH-C35] + Cc1nc(NC(=O)N2CCC[C@H]2C(N)=O)sc1-c1ccnc(C(C)(C)C(F)(F)F)c1 [Alpelisib] (partner 2 µM)
Summary of the method: as §1

Cell Line	relative viability ([1]; first compound 0.0025 µM)	relative viability ([1]; first compound 0.007906 µM)	relative viability ([1]; first compound 0.025 µM)	relative viability ([1]; first compound 0.07906 µM)	relative viability ([1]; first compound 0.25 µM)	relative viability ([2]; first compound 0.0025 µM)	relative viability ([2]; first compound 0.007906 µM)	relative viability ([2]; first compound 0.025 µM)	relative viability ([2]; first compound 0.07906 µM)	relative viability ([2]; first compound 0.25 µM)	relative viability ([3]; first compound 0.08 µM)	relative viability ([3]; first compound 0.253 µM)	relative viability ([3]; first compound 0.8 µM)	relative viability ([3]; first compound 2.53 µM)	relative viability ([3]; first compound 8 µM)	relative viability ([4]; first compound 0.08 µM)	relative viability ([4]; first compound 0.253 µM)	relative viability ([4]; first compound 0.8 µM)	relative viability ([4]; first compound 2.53 µM)	relative viability ([4]; first compound 8 µM)
NCI-H2087	1.11	1.15	1.09	0.939	1.23	0.958	0.908	0.838	1.04	0.921	1.04	1.06	0.867	1.07	0.834	1.11	1.13	1.05	1.09	0.874
LK-2	0.987	0.933	0.787	0.903	0.851	0.548	0.509	0.67	0.696	0.607	0.836	1.01	0.758	0.735	0.932	1.11	1.05	0.991	1.1	1.04
NCI-H1437	0.925	0.981	0.738	0.795	0.922	0.461	0.44	0.451	0.46	0.465	0.942	0.807	0.776	0.904	0.812	0.961	0.992	0.896	0.933	0.966
COR-L23	0.883	0.846	0.656	0.826	0.923	0.806	0.794	0.522	0.589	0.635	1.05	1.09	0.932	1	0.938	0.759	0.765	0.782	0.769	0.746
ABC-1	1.5	0.918	1.12	0.92	0.823	0.874	0.844	0.693	0.948	0.737	1.3	1	1.03	1.16	1.06	0.907	1.03	1	1.05	0.857
NCI-H838	1.03	1.06	0.907	0.778	0.96	0.506	0.507	0.607	0.511	0.552	1.21	1.07	0.882	1.02	1.02	1.03	0.92	0.951	0.93	0.949
A549	1.08	1.07	1.04	0.976	1.08	0.391	0.505	0.538	0.52	0.54	0.956	1	0.988	0.947	1.03	0.734	0.871	0.771	0.744	0.726
A-427	1	1.09	0.679	1.02	1.08	0.733	0.685	0.679	0.843	0.826	1.03	0.978	0.942	1.02	1.03	1.06	1.04	1.04	1.07	1.1
NCI-H1792	0.963	0.931	0.834	0.746	0.824	0.33	0.263	0.273	0.193	0.246	0.806	0.893	0.87	0.98	0.973	0.655	0.727	0.669	0.741	0.827
LCLC-97TM1	0.721	0.776	0.896	0.972	1.13	0.188	0.268	0.22	0.182	0.199	0.672	0.825	1.1	–	0.869	0.289	0.213	0.242	–	0.242
NCI-H1703	1.14	1.37	1.02	1.14	1.08	0.223	0.224	0.264	0.256	0.242	1.06	1.06	0.866	0.831	1.1	0.379	0.372	0.405	0.343	0.309
PC-3 [JPC-3]	0.475	0.411	0.501	0.522	0.427	0.896	0.866	0.732	0.797	0.763	0.431	0.486	0.444	0.44	0.492	1.08	1.04	0.988	1.08	1.04
BEN	0.669	0.672	0.629	0.526	0.741	0.557	0.512	0.435	0.593	0.556	0.796	0.805	0.724	0.718	0.865	0.988	0.927	0.885	0.975	0.942
NCI-H1666	0.72	0.584	0.734	0.786	0.669	0.405	0.399	0.53	0.482	0.406	0.599	0.523	0.481	0.736	0.605	0.974	0.951	0.955	0.986	0.911
LC-2-ad	1.01	0.893	0.993	0.912	1.14	0.558	0.426	0.716	0.622	0.467	0.998	0.978	0.924	0.904	0.973	0.888	0.815	0.834	0.894	0.921
SK-LU-1	0.805	0.425	0.263	0.295	0.4	0.544	0.354	0.336	0.327	0.343	0.918	0.856	0.871	0.976	0.82	0.993	0.918	1.29	1.11	0.934
